Laboratory results published in patent publication US4076725A, “Derivatives of streptovaricin ansamycins” (University of Illinois Foundation, priority 1976, dated 1978).
In brackets after ≈: the same amount, converted by molar mass.

What was measured:
[1] = system: reverse transcriptase (RNA-directed DNA polymerase); test: Reverse transcriptase (RNA-directed DNA polymerase) inhibition; format: biochemical; conditions: concentration not given
Text: The assay and work-up conditions for reverse transcriptase analysis were essentially those described by Brockman, et al., (Nature, 230, 249 (1971)), except for eliminating the phosphate from the washing solution (10% trichloroacetic acid).

[2] = system: DNA-directed DNA polymerase; test: DNA-directed DNA polymerase inhibition; format: biochemical; conditions: concentration not given
Experimental: The assay and work-up conditions for DNA polymerase were essentially those described by Magee (Virology, 17, 604 (1962)). The reaction mixture contained […]: potassium phosphate (pH 7.4), 15; EDTA, 2; ATP, 0.05; Mg^++, 2.5; triphosphates of CdR, deoxyguanosine, and AdR, 0.01 each; TdR triphosphate-^3 H, 0.01 (100 mCi/mmol.); DNase-treated E. coli DNA, 0.2 mg.; and cell sonicate, 0.2 mg. protein in a total volume of 0.5 ml. After incubation at 37° C for up to 60 minutes with continual gentle shaking, the reactions were stopped by the addition of carrier DNA […] and PCA (to 0.5 N) containing 2% Celite. The pellet was washed with PCA, dissolved in 1 N NaOH, reprecipitated and washed with PCA, extracted with 0.15 ml. 0.5 N PCA (70°) for 20 minutes, and counted in 12 ml. of Diotol.

E. coli RNA polymerase = E. coli RNA polymerase (Escherichia coli, UniProt P0A8V2); test: Bacterial RNA polymerase inhibition; format: biochemical
Experimental: The assay for bacterial RNA polymerase followed the procedure of Reusser (J. Bacterial., 105, 580 (1971)). Assay mixtures were prepared containing in a total volume of 0.25 ml.: Tris-hydrochloride buffer, pH 7.9, 5 μmoles; MgCl2, 1 μmole; mercaptoethanol, 3 μmoles; MnCl2, 0.25 μmole; guanosine triphosphate, cytidine triphosphate, uridine triphosphate, 0.1 μmole each; adenosine triphosphate 8-14C, 0.1 μmole containing 0.05 μCi; dAT, 0.2 units; polymerase, ~35 μg. The reaction mixtures were incubated at 30° C for 15 min.

AKR cells = test: AKR growth inhibition (AKR cells in culture); format: cell-based; conditions: 37° C, 3 days, concentration not given
Experimental: The assay for inhibition of AKR cells in culture was as follows. Four ml. of cells (ca. 1×10^4 cells/ml.) were pipetted into sterilized plastic culture tubes with screw caps (16×125 mm.; Falcon Plastics, Oxnard, California). The experiment was initiated by adding 1.0 ml. of medium or drug at different concentrations and incubating at 37° C for 3 days. Cell growth was determined twice a day for 3 days. The percent inhibition was calculated from the controls (no drug).

B. subtilis = B. subtilis bacterial inhibition (paper disc, agar plate); conditions: Bacillus subtilis, read-out: Zone (mm.) inhibition
Experimental: The assay for B. subtilis bacterial inhibition was obtained on plates with B. subtilis UC 564 spores in agar with the following composition per liter:
After autoclaving, 10 ml. of 20% glucose was added. The seeding rate was approximately 10^9 spores per liter. Test solutions were applied to 1/2-inch paper discs (Schleicher & Schuell 740E) with 0.08 ml. per disc.

S. lutea = S. lutea bacterial inhibition (MIC, broth dilution); format: cell-based; conditions: Micrococcus luteus; 37°, 16-18 hours
Experimental: The assay for S. lutea inhibition was as follows. Water-soluble preparations were dissolved in brain heart infusion broth (Difco) to 1 mg./ml. Water-insoluble preparations were dissolved (or suspended) in dimethylformamide to 10 mg./ml. and diluted with brain heart broth to 1 mg./ml. Two-fold serial dilutions were made with broth starting with 1 mg./ml. with final volumes of 01. ml. per dilution. Overnight bacterial cultures were diluted 1:20,000 with brain heart and 0.1 ml. of diluted culture was added to each dilution of antibiotic (final total volume was 0.2 ml.). This was all done in plastic microtest plates (Microtest II Tissue Culture Plate, Bioquest). The plates were incubated at 37° for 16-18 hours and the minimum inhibitory concentrations (MIC) were recorded as the smallest concentration in which no visible growth occurred.

Sequence of E. coli RNA polymerase (P0A8V2 whole entry): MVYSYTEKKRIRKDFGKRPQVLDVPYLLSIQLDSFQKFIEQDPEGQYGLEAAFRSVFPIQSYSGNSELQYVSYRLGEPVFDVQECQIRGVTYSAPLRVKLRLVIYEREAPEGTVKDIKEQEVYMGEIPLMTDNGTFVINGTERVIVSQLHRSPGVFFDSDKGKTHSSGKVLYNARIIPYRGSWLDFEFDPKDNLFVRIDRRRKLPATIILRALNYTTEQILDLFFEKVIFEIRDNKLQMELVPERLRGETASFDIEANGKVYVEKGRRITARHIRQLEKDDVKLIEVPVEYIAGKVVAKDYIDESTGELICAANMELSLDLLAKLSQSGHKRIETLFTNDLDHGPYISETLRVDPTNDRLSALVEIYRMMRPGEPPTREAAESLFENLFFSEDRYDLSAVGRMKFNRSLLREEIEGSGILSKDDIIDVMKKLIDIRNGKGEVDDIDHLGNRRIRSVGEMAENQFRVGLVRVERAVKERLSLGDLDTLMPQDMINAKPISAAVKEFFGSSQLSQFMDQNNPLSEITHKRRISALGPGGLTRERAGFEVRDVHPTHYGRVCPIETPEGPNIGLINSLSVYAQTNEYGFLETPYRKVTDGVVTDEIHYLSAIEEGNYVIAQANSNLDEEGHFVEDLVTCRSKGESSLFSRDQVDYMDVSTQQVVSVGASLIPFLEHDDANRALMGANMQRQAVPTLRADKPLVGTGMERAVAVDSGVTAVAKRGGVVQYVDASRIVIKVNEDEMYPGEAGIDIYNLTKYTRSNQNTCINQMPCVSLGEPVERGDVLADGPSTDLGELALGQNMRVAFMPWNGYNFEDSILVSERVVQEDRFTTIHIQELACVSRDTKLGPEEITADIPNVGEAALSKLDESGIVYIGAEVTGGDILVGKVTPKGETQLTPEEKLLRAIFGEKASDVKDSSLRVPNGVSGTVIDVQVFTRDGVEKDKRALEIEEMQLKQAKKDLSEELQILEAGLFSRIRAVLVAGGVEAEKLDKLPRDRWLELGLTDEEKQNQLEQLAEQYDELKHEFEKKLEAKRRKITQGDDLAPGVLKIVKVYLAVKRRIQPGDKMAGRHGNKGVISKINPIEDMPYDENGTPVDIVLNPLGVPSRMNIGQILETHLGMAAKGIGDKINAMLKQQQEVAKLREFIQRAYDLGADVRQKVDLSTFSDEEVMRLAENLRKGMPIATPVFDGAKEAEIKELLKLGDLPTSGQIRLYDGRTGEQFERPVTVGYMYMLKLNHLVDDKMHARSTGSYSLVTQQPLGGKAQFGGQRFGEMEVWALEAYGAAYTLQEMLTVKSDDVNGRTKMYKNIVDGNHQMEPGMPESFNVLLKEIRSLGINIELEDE
Sequence of E. coli RNA polymerase (P0A8T7 whole entry partner): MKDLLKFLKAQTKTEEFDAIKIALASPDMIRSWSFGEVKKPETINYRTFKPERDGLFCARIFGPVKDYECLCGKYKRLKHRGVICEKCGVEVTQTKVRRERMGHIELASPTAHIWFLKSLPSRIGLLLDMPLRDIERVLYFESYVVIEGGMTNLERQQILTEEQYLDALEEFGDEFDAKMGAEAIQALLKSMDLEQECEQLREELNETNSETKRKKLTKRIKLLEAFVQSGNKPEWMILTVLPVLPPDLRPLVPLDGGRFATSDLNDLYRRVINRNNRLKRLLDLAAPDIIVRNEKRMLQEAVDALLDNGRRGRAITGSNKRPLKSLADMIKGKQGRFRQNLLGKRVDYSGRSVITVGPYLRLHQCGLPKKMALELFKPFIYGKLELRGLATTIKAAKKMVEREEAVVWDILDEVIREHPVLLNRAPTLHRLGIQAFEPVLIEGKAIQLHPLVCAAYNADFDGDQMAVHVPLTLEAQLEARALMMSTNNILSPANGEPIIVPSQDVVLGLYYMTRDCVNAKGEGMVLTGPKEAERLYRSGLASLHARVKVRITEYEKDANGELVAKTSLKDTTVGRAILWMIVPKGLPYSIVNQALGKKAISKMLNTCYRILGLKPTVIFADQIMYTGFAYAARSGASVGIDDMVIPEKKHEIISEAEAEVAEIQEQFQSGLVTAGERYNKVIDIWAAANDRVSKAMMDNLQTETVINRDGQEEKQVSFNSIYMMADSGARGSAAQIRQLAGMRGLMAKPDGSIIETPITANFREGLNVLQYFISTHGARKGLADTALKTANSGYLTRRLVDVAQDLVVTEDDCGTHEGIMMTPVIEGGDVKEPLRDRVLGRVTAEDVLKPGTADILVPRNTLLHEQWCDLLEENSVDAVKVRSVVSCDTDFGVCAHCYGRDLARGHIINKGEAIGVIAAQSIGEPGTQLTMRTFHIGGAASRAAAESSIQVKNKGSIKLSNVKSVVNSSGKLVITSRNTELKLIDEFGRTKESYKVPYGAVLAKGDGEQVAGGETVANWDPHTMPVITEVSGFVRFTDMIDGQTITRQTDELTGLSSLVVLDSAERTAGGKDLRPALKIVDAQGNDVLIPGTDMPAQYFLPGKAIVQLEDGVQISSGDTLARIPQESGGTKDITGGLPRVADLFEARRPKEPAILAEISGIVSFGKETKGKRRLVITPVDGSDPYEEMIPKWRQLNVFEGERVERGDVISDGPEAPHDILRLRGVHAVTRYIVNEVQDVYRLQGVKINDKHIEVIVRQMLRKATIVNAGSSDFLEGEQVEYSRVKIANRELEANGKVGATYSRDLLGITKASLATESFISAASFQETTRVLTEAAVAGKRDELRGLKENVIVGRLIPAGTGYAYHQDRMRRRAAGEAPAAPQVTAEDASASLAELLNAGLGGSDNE
Sequence of E. coli RNA polymerase (P0A7Z4 whole entry partner): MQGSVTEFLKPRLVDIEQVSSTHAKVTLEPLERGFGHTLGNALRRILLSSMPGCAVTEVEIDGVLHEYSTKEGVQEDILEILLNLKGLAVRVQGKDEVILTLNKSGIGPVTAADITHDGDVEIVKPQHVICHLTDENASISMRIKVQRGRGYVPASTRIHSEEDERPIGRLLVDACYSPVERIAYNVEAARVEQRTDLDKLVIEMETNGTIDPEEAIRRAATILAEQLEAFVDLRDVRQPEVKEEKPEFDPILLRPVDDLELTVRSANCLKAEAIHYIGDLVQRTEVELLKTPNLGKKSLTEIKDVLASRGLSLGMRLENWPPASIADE
Sequence of E. coli RNA polymerase (P0A800 2-91 partner limits assumed): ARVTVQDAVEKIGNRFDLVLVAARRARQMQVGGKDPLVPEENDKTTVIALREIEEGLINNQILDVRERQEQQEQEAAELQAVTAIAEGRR

SMILES | % inhibition [1] [%] | % inhibition [2] [%] | % inhibition (E. coli RNA polymerase; 0.1 μmole/ml.) [%] | % inhibition (AKR cells) [%] | zone of inhibition at 250 µM (B. subtilis) [mm] | MIC (S. lutea) [µg/mL] | % inhibition (E. coli RNA polymerase; 0.01 μmole/ml. (Streptovaricin C)) [%]
CC(=O)C=CC=C(C)C(=O)Nc1c(C)c(OC(C)=O)c2c(c1O)C(=O)C(C)=C1OCOC(C(C)=CC(C)=O)=C12 [Prestreptovarone] | 60.1 | 35.4 | 0 | – | – | – | –
COC(=O)C1C(O)C(C)C(O)OC1C(C)C(O)C(C)C=CC=C(C)C(=O)Nc1c(C)c(OC(C)=O)c2c(c1O)C(=O)C(C)=C1OCOC(C(C)=CC(C)=O)=C12 (centres unmarked) [Streptoval C] | 84.0 | 9.2 | – | 2.1 | 0 | – | –
CC(=O)C=C(C)C1=C2C(=C(C)C(=O)c3c(O)c(NC(=O)C(C)=O)c(C)c(OC(C)=O)c32)OCO1 [Streptovarone] | 59.4 | 12.2 | 0 | 0.4 | 0 | – | –
COC(=O)C(C(O)C(C)C=O)C(OC(C)=O)C(C)C(O)C(C)(O)C=C(C)C1=C2C(=C(C)C(=O)c3c(O)c(NC(=O)C(C)=CC=CC(C)=O)c(C)c(OC(C)=O)c32)OCO1 (centres unmarked) [Isostreptoval A] | 7.8 | – | 21 | 10.7 | 16 | 80 (≈ 96.9 µM) | –
COC(=O)C1C(OC(C)=O)C(C)C(OC(C)=O)C(C)C=CC=C(C)C(=O)Nc2c(C)c(OC(C)=O)c3c(c2O)C(=O)C(C)=C2OCOC(=C23)C(C)=CC(C)(O)C(OC(C)=O)C(C)C1OC(C)=O (centres unmarked) [Streptovaricin C Tetra-acetate] | 80.0 | – | – | – | – | – | –
COC(=O)C(C(OC(C)=O)C(C)C=O)C(OC(C)=O)C(C)C(OC(C)=O)C(C)C=CC=C(C)C(=O)Nc1c(C)c(OC(C)=O)c2c(c1O)C(=O)C(C)=C1OCOC(C(C)=CC(C)=O)=C12 (centres unmarked) [Streptoval C Triacetate-B] | 97.3 | – | – | – | – | – | –
COC(=O)C1C(O)C(C)C(O)C(C)C=CC=C(C)C(=O)Nc2c(C)c(OC(C)=O)c3c(c2O)C(=O)C(C)=C2OCOC(=C23)C(C)=CC(C)(O)C(O)C(C)C1O (centres unmarked) [Streptovaricin C, reference compound] | 47.9 | 0 | – | 8.9 | 22 | – | 66
COC(=O)C1C(OC(C)=O)C(C)C(O)OC1C(C)C(O)C(C)C=CC=C(C)C(=O)Nc1c(C)c(OC(C)=O)c2c(c1O)C(=O)C(C)=C1OCOC(C(C)=CC(C)=O)=C12 (centres unmarked) [Streptoval B] | 99.0 | – | – | – | – | – | –
COC(=O)C1C(OC(C)=O)C(C)C(OC(C)=O)C(C)(O)C=CC=C(C)C(=O)Nc2c(C)c(OC(C)=O)c3c(c2O)C(=O)C(C)=C2OCOC(=C23)C(C)=CC(C)(O)C(OC(C)=O)C(C)C1OC(C)=O (centres unmarked) [Streptovaricin A Triacetate] | 76.0 | – | – | – | – | – | –
COC(=O)C1C(O)C(C)C(O)OC1C(C)C(=O)C(C)C=CC=C(C)C(=O)Nc1c(C)c(OC(C)=O)c2c(c1O)C(=O)C(C)=C1OCOC(C(C)=CC(C)=O)=C12 (centres unmarked) [Streptoval E] | 95.7 | – | 7 | – | 0 | 75 (≈ 97.9 µM) | –
COC(=O)C1C(OC(C)=O)C(C)C(O)OC1C(C)C(O)C(C)(O)C=CC=C(C)C(=O)Nc1c(C)c(OC(C)=O)c2c(c1O)C(=O)C(C)=C1OCOC(C(C)=CC(C)=O)=C12 (centres unmarked) [Streptoval A] | 100.0 | – | 35 | – | 17 | 80 (≈ 96.9 µM) | –
COC(=O)C1C(OC(C)=O)C(C)C(OC(C)=O)OC1C(C)C(OC(C)=O)C(C)C=CC=C(C)C(=O)Nc1c(C)c(OC(C)=O)c2c(c1O)C(=O)C(C)=C1OCOC(C(C)=CC(C)=O)=C12 (centres unmarked) [Streptoval C Triacetate-A] | 86.2 | – | – | – | – | – | –
CC(=O)C=C(C)C1=C2C(=C(C)C(=O)c3c(O)c(NC(=O)C(C)=CC=CC(C)(O)C4OC(=O)C5C(O)C(C)C(O)OC5C4C)c(C)c(OC(C)=O)c32)OCO1 (centres unmarked) [Streptoval F] | 8.3 | – | – | – | – | – | –
COC(=O)C(C(O)C(C)C=O)C(O)C(C)C(O)C(C)(O)C=C(C)C1=C2C(=C(C)C(=O)c3c(O)c(NC(=O)C(C)=CC=CC(C)=O)c(C)c(OC(C)=O)c32)OCO1 (centres unmarked) [Isostreptoval G] | – | – | 52 | – | – | – | –
COC(=O)C1C(OC(C)=O)C(C)C(OC(C)=O)C(C)C=CC=C(C)C(=O)Nc2c(C)c(OC(C)=O)c3c(c2O)C(=O)C(C)=C2OCOC(=C23)C(C)=CC(C)(O)C(O)C(C)C1OC(C)=O (centres unmarked) [Streptovaricin C Triacetate] | 79.0 | – | – | – | – | – | –
